Source: patent publication US8614252B2, “Crystalline solid rasagiline base” (Teva Pharmaceutical Industries Ltd., priority 2006, dated 2013)
≈ marks a conversion by molar mass, not a printed value.

Experiments:
[1] = low levels of volatiles by KF and TGA
[2] = pH 11
[3] = alcohols, acetone, ethyl acetate, toluene, diethyl ether, dioxane, hexane and n-heptane

- hygroscopicity [1]: not hygroscopic
- solubility in water [2]: 5500 µg/mL (≈ 32.1 mM)
- solubility in organic solvents [3]: freely soluble
Structure (SMILES): C#CCN[C@@H]1CCc2ccccc21 [rasagiline base, R(+)-N-propargyl-1-aminoindan]
